In brackets after ≈: the same amount, converted by molar mass.
Experiments:
[1] = tested on: Mycobacterium tuberculosis; assay: Antitubercular activity against Mycobacterium tuberculosis H37Rv […] incubated for 8 days by MABA; assay type: functional; conditions: 192 h, time 8 day
[2] = Cytotoxicity against human THP-1 cells incubated for 48 hrs by MTS/PMS assay; assay type: toxicity, cell-based
[3] = Selectivity index, ratio of CC50 for human THP-1 cells to MIC for Mycobacterium tuberculosis H37Rv […]; assay type: toxicity; conditions: read-out: Selectivity Index
[4] = target: hERG (KCNH2) (Homo sapiens, UniProt Q12809); assay: Inhibition of human ERG expressed in HEK293 cells at 10 uM by whole cell patch clamp assay relative to control; assay type: toxicity, cell-based; conditions: HEK293 cells expressing human ERG
[5] = Toxicity in ICR mouse assessed as increase in body weight at 500 mg/kg, po administered as single dose and measured for 7 days; assay type: organism-based; conditions: in vivo, 168 h, time 7 day
[6] = Toxicity in ICR mouse assessed as animal death at 500 mg/kg, po administered as single dose and measured for 7 days; assay type: organism-based; conditions: in vivo, 168 h, time 7 day
[7] = Toxicity in po dosed ICR mouse administered as single dose and measured for 7 days; assay type: organism-based; conditions: in vivo, time 7 day
[8] = Half-life in ICR mouse at 25 mg/kg, po measured upto 24 hrs by HPLC analysis; assay type: ADME, organism-based; conditions: in vivo
[9] = Tmax in ICR mouse at 25 mg/kg, po measured upto 24 hrs by HPLC analysis; assay type: ADME, organism-based; conditions: in vivo
[10] = Cmax in ICR mouse at 25 mg/kg, po measured upto 24 hrs by HPLC analysis; assay type: ADME, organism-based; conditions: in vivo
[11] = AUC(0 to infinity) in ICR mouse at 25 mg/kg, po measured upto 24 hrs by HPLC analysis; assay type: ADME, organism-based; conditions: in vivo
[12] = Mean residence time in ICR mouse at 25 mg/kg, po measured upto 24 hrs by HPLC analysis; assay type: ADME, organism-based; conditions: in vivo
[13] = Toxicity in ICR mouse assessed as depression at 500 mg/kg, po administered as single dose and measured on next day; assay type: organism-based; conditions: in vivo, 24 h, time 1 day
[14] = Toxicity in ICR mouse assessed as depression at 500 mg/kg, po administered as single dose and measured after 3 to 7 days; assay type: organism-based; conditions: in vivo, time 3-7 day

Sequence of hERG (KCNH2) (Q12809 whole entry): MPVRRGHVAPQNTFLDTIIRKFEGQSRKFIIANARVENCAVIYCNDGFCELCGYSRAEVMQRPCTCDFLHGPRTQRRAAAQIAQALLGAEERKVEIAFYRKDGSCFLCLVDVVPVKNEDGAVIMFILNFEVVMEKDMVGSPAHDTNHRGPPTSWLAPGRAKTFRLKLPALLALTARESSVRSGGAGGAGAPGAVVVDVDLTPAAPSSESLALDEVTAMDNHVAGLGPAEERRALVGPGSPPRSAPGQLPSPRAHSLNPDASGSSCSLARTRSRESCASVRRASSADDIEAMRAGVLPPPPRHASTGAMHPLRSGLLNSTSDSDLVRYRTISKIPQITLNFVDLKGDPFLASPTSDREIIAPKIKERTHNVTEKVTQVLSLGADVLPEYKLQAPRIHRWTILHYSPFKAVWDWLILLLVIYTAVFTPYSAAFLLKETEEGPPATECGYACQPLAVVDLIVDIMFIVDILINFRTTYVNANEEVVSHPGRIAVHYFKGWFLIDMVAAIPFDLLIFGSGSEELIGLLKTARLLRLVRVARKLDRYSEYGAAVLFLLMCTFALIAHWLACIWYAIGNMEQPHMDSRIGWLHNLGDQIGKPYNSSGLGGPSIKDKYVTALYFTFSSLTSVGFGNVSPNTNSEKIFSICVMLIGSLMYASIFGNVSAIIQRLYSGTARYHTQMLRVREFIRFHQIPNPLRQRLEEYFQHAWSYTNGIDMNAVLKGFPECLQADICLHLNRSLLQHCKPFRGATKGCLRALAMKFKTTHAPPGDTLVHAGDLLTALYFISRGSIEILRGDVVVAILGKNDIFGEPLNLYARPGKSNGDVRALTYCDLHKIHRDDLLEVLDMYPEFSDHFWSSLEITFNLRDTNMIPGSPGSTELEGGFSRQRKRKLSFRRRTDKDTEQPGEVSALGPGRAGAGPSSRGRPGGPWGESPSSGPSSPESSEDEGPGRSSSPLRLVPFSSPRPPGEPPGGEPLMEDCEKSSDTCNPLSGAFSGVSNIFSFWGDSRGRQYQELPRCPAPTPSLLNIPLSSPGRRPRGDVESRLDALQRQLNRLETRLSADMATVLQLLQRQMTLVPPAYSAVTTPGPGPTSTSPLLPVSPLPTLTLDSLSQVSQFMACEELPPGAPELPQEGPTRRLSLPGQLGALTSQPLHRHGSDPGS

Structure (SMILES)	MIC [1] [µg/mL]	CC50 at 48 h [2] [µg/mL]	selectivity ratio [3]	inhibition at 10 µM [4] [%]	other results
O=c1nc(N2CCN(NC3CCCCC3)CC2)sc2c([N+](=O)[O-])cc(C(F)(F)F)cc12	< 0.001	> 64	> 4200		
CON=C1CCC(N(C)N2CCN(c3nc(=O)c4cc(C(F)(F)F)cc([N+](=O)[O-])c4s3)CC2)CC1 (centres undefined)	< 0.001	> 64	> 4200		
O=c1nc(N2CCN(NC3CCCCCCC3)CC2)sc2c([N+](=O)[O-])cc(C(F)(F)F)cc12	< 0.001	46.9 (≈ 96.7 µM)	> 4200		
CN(C1CCC(C)(C)CC1)N1CCN(c2nc(=O)c3cc(C(F)(F)F)cc([N+](=O)[O-])c3s2)CC1	< 0.001	> 64	> 4200	6.1	Activity [5]: Toxic; Activity [6]: Non-Toxic; LD50 at 168 h [7]: > 500 mg/kg; half-life [8]: 5.07 h; Tmax [9]: 0.5 h; Cmax [10]: 501 ng/mL; AUC(0-inf) [11]: 1190 ng·h/mL; MRT [12]: 3.91 h
CN(C1C2CC3CC(C2)CC1C3)N1CCN(c2nc(=O)c3cc(C(F)(F)F)cc([N+](=O)[O-])c3s2)CC1 (centres undefined)	0.0025 (≈ 0.00477 µM)	> 64	> 4200		
CC1CC(N(C)N2CCN(c3nc(=O)c4cc(C(F)(F)F)cc([N+](=O)[O-])c4s3)CC2)CC(C)(C)C1 (centres undefined)	< 0.001	> 64	> 4200		
CON=C1CCC(N(C)N2CCN(c3nc(=O)c4cc(C(F)(F)F)cc([N+](=O)[O-])c4s3)CC2(C)C)CC1 (centres undefined)	0.0631 (≈ 0.116 µM)	4.91 (≈ 9.05 µM)	> 4200		
CN(C1CCC2(CCCCC2)CC1)N1CCN(c2nc(=O)c3cc(C(F)(F)F)cc([N+](=O)[O-])c3s2)CC1	< 0.001	51.9 (≈ 96.2 µM)	> 4200		
CC1CCC(C)C(N(C)N2CCN(c3nc(=O)c4cc(C(F)(F)F)cc([N+](=O)[O-])c4s3)CC2)C1 (centres undefined)	< 0.001	> 64	> 4200		
CN(C1CCCCC1)N1CCN(c2nc(=O)c3cc(C(F)(F)F)cc([N+](=O)[O-])c3s2)CC1	< 0.001	> 64	> 4200	27.3	
CN(C1CCC(C)(C)CC1)N1CCN(c2nc(=O)c3cc(C(F)(F)F)cc([N+](=O)[O-])c3s2)CC1(C)C	< 0.001	> 64	> 4200	18.1	Activity [5]: Toxic; Activity [6]: Non-Toxic; LD50 at 168 h [7]: > 500 mg/kg; Activity [13]: Toxic; Activity [14]: Non-Toxic
CN(C1CCCCC1)N1CCN(c2nc(=O)c3cc(C(F)(F)F)cc([N+](=O)[O-])c3s2)CC1(C)C	0.0015 (≈ 0.003 µM)	> 64	> 4200	45.7	
CC1CCC(N(C)N2CCN(c3nc(=O)c4cc(C(F)(F)F)cc([N+](=O)[O-])c4s3)CC2)CC1 (centres undefined)	< 0.001	> 64	> 4200	32.7	
CN(C1CCCCCCC1)N1CCN(c2nc(=O)c3cc(C(F)(F)F)cc([N+](=O)[O-])c3s2)CC1	< 0.001	> 64	> 4200		
CC1(C)CCC(NN2CCN(c3nc(=O)c4cc(C(F)(F)F)cc([N+](=O)[O-])c4s3)CC2)CC1	< 0.001	58.1 (≈ 120 µM)	> 4200	19.9	Activity [5]: Toxic; Activity [6]: Non-Toxic; LD50 at 168 h [7]: > 500 mg/kg; half-life [8]: 1.23 h; Tmax [9]: 0.25 h; Cmax [10]: 755 ng/mL; AUC(0-inf) [11]: 971 ng·h/mL; MRT [12]: 1.63 h
CN(C1CCC(=NOC(C)(C)C)CC1)N1CCN(c2nc(=O)c3cc(C(F)(F)F)cc([N+](=O)[O-])c3s2)CC1 (centres undefined)	0.00721 (≈ 0.013 µM)	> 64	> 4200		
O=c1nc(N2CCN(NC3CCC(F)(F)CC3)CC2)sc2c([N+](=O)[O-])cc(C(F)(F)F)cc12	0.00311 (≈ 0.0063 µM)	> 64	> 4200	46.8	
CC1CCCCC1NN1CCN(c2nc(=O)c3cc(C(F)(F)F)cc([N+](=O)[O-])c3s2)CC1 (centres undefined)	0.0014 (≈ 0.00297 µM)	48.7 (≈ 103 µM)	> 4200		
CON=C1CCC(N(C)N2CCN(c3nc(=O)c4cc(C(F)(F)F)cc([N+](=O)[O-])c4s3)CC2C)CC1 (centres undefined)	0.0143 (≈ 0.0271 µM)	12.3 (≈ 23.3 µM)	> 4200	23.1	
CN(C1CCC(F)(F)CC1)N1CCN(c2nc(=O)c3cc(C(F)(F)F)cc([N+](=O)[O-])c3s2)CC1	< 0.001	> 64	> 4200		
CCON=C1CCC(N(C)N2CCN(c3nc(=O)c4cc(C(F)(F)F)cc([N+](=O)[O-])c4s3)CC2)CC1 (centres undefined)	0.0118 (≈ 0.0223 µM)	50.1 (≈ 94.8 µM)	> 4200		
CC1CN(c2nc(=O)c3cc(C(F)(F)F)cc([N+](=O)[O-])c3s2)CCN1N(C)C1CCC(C)(C)CC1 (centres undefined)	< 0.001	> 64	> 4200	35.5	Activity [5]: Toxic; Activity [6]: Non-Toxic; LD50 at 168 h [7]: > 500 mg/kg; Activity [13]: Toxic; Activity [14]: Non-Toxic
CC1CCC(NN2CCN(c3nc(=O)c4cc(C(F)(F)F)cc([N+](=O)[O-])c4s3)CC2)CC1 (centres undefined)	< 0.001	> 64	> 4200		
CC1CN(c2nc(=O)c3cc(C(F)(F)F)cc([N+](=O)[O-])c3s2)CCN1N(C)C1CCCCC1 (centres undefined)	< 0.001	> 64	> 4200		
CC1CCCCC1N(C)N1CCN(c2nc(=O)c3cc(C(F)(F)F)cc([N+](=O)[O-])c3s2)CC1 (centres undefined)	0.00135 (≈ 0.00278 µM)	> 64	> 4200		
CN(CC1CCC(F)(F)CC1)N1CCN(c2nc(=O)c3cc(C(F)(F)F)cc([N+](=O)[O-])c3s2)CC1	< 0.001	> 64	> 4200		
NNC(=O)c1ccncc1 [ISONIAZID]	0.0374 (≈ 0.273 µM)	> 64			
O=c1nc(N2CCN(CC3CCCCC3)CC2)sc2c([N+](=O)[O-])cc(C(F)(F)F)cc12 [MACOZINONE]	< 0.001	> 64			
CO[C@H]1/C=C/O[C@@]2(C)Oc3c(C)c(O)c4c(O)c(c(/C=N/N5CCN(C)CC5)c(O)c4c3C2=O)NC(=O)/C(C)=C\C=C\[C@H](C)[C@H](O)[C@@H](C)[C@@H](O)[C@@H](C)[C@H](OC(C)=O)[C@@H]1C [RIFAMPIN]	0.019 (≈ 0.0231 µM)	> 64			

Source: ChEMBL document CHEMBL5620381, “Design, synthesis and antitubercular activity of novel N-(amino)piperazinyl benzothiazinones with improved safety” (Eur J Med Chem, 2023)
